Here are results for four molecules from patent US6423854B1, “Aminophenol derivatives and their use in cosmetics” (L'Oreal, priority 1997, dated 2002).

This experiment concerns co-culture of keratinocytes and melanocytes. The experiment in a line: Inhibition of melanogenesis (depigmenting activity) in a co-culture of keratinocytes and melanocytes. As to conditions: for Class (maximum depigmenting activity): inhibition of melanogenesis relative to control; for IC50: co-culture of keratinocytes and melanocytes, read-out: IC50 (concentration for which a 50% inhibition of melanogenesis is observed). Format: cell-based. On the procedure:
This test corresponds to the one described in patent FR 2,734,825 filed by the Applicant, as well as in the article by R. Schmidt, P. Krien and M. Régnier, Anal. Biochem., 235(2), 113-18, (1996). This test is thus carried out on a co-culture of keratinocytes and melanocytes.
For each test compound, the IC50 value, which corresponds to the micromolar (μM) concentration for which a 50% inhibition of melanogenesis is observed, is determined.
Moreover, each of these compounds is classed as regards their maximum depigmenting activity:
Class 1: 10 to 30% inhibition of melanogenesis relative to the control (same experiment without test compound);
Class 2: 30 to 60% inhibition of melanogenesis relative to the control (same experiment without test compound);
Class 3: 60 to 100% inhibition of melanogenesis relative to the control (same experiment without test compound).

`CC(C)CCC[C@@H](C)[C@H]1CC[C@H]2[C@@H]3CC=C4C[C@@H](OC(=O)Nc5ccc(O)cc5)CC[C@]4(C)[C@H]3CC[C@]12C` [Compound of Example 3, N-Cholesteryloxycarbonyl-4-aminophenol]: the IC50 is 10 µM. For the same molecule, the Class (maximum depigmenting activity) (200 μM) lay in the range of 3 to 200.
Turning to `CCOC(=O)Nc1ccc(OC(=O)OCC)cc1` [Compound of Example 2, N-Ethyloxycarbonyl-O-ethyloxycarbonyl-4-aminophenol], the IC50 was found to be 50 µM. The molecule further had a Class (maximum depigmenting activity) (200 μM) of 3 to 200.
For the molecule `O=c1cc(CO)occ1O` [Kojic acid, reference compound], the IC50 turned out to be 500 µM. Also, under “500 μM”, the Class (maximum depigmenting activity) lay within 2 to 500.
Turning to `CCOC(=O)Nc1ccc(O)cc1` [Compound of Example 1, N-Ethyloxycarbonyl-4-aminophenol], the IC50 amounted to 1 µM. Besides, the “Class (maximum depigmenting activity)” value (1 μM) is 3 to 1 μM (Class 3: 60 to 100% inhibition of melanogenesis relative to the control).
